Experimental data published in patent publication US12497365B2, “4-pyridinyl formamide compound or derivative thereof, preparation method therefor, herbicidal composition and use thereof” (Qingdao Kingagroot Chemical Compound Co., Ltd., priority 2019, dated 2025).

Legend:
Assay in all cases: Weeding effect in post-emergence stage
Assay type in all cases: in vivo
Settings in all cases: active ingredient 2000 g/ha, 3 weeks after application, fresh weight control rate
[1] = tested on: Amaranthus retroflexus L.
In short: (§1)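 Pot-grown weeds at the 2-3 leaf stage receive a tower spray of test compound at 2000, 1000, 500, 250 or 125 g/ha, formulated in acetone with Tween 80 and methyl oleate synergist. Fresh weight reduction is rated on an activity scale 3 weeks later.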

[2] = tested on: Chenopodium album
In short: as §1

[3] = tested on: Abutilon theophrasti
In short: as §1

[4] = tested on: Descurainia sophia
In short: as §1

SMILES | Weeding effect, activity level (growth control rate), Amaranthus retroflexus L. [1] | Weeding effect, activity level (growth control rate), Chenopodium album [2] | Weeding effect, activity level (growth control rate), Abutilon theophrasti [3] | Weeding effect, activity level (growth control rate), Descurainia sophia [4]
Cn1nnnc1NC(=O)c1ccnc(-c2ccc(Cl)nc2Cl)c1Cl [Compound 1-139] | 5 (Level 5: growth control rate is above 85%) | 5 (Level 5: growth control rate is above 85%) | 5 (Level 5: growth control rate is above 85%) | 5 (Level 5: growth control rate is above 85%)
Cn1nnnc1NC(=O)c1ccnc(-c2ccc(Br)nc2F)c1Cl [Compound 1-140] | 5 (Level 5: growth control rate is above 85%) | 5 (Level 5: growth control rate is above 85%) | 5 (Level 5: growth control rate is above 85%) | 5 (Level 5: growth control rate is above 85%)
Cn1nnnc1NC(=O)c1ccnc(-c2cccnc2C(F)(F)F)c1Cl [Compound 1-141] | 5 (Level 5: growth control rate is above 85%) | 5 (Level 5: growth control rate is above 85%) | 5 (Level 5: growth control rate is above 85%) | 5 (Level 5: growth control rate is above 85%)
Cn1nnnc1NC(=O)c1ccnc(-c2ccc(C(F)(F)F)nc2)c1Cl [Compound 1-142] | 5 (Level 5: growth control rate is above 85%) | 5 (Level 5: growth control rate is above 85%) | 5 (Level 5: growth control rate is above 85%) | 5 (Level 5: growth control rate is above 85%)
COc1ccc(-c2nccc(C(=O)Nc3nnnn3C)c2Cl)cn1 [Compound 1-143] | 5 (Level 5: growth control rate is above 85%) | 5 (Level 5: growth control rate is above 85%) | 5 (Level 5: growth control rate is above 85%) | 5 (Level 5: growth control rate is above 85%)
CCOc1ccc(-c2nccc(C(=O)Nc3nnnn3C)c2Cl)cn1 [Compound 1-144] | 5 (Level 5: growth control rate is above 85%) | 5 (Level 5: growth control rate is above 85%) | 5 (Level 5: growth control rate is above 85%) | 5 (Level 5: growth control rate is above 85%)
Cn1nnnc1NC(=O)c1ccnc(-c2cncc(N)c2)c1Cl [Compound 1-145] | 5 (Level 5: growth control rate is above 85%) | 5 (Level 5: growth control rate is above 85%) | 5 (Level 5: growth control rate is above 85%) | 5 (Level 5: growth control rate is above 85%)
Cn1nnnc1NC(=O)c1ccnc(-c2ccc(N3CCOCC3)nc2)c1Cl [Compound 1-146] | 5 (Level 5: growth control rate is above 85%) | 5 (Level 5: growth control rate is above 85%) | 5 (Level 5: growth control rate is above 85%) | 5 (Level 5: growth control rate is above 85%)
Cn1nnnc1NC(=O)c1ccnc(-c2ccncc2)c1Cl [Compound 1-147] | 5 (Level 5: growth control rate is above 85%) | 5 (Level 5: growth control rate is above 85%) | 5 (Level 5: growth control rate is above 85%) | 5 (Level 5: growth control rate is above 85%)
Cn1nnnc1NC(=O)c1ccnc(-c2ccnc(C#N)c2)c1Cl [Compound 1-148] | 5 (Level 5: growth control rate is above 85%) | 5 (Level 5: growth control rate is above 85%) | 5 (Level 5: growth control rate is above 85%) | 5 (Level 5: growth control rate is above 85%)
Cn1nnnc1NC(=O)c1ccnc(-c2ccnc(F)c2)c1Cl [Compound 1-149] | 5 (Level 5: growth control rate is above 85%) | 5 (Level 5: growth control rate is above 85%) | 5 (Level 5: growth control rate is above 85%) | 5 (Level 5: growth control rate is above 85%)
Cn1nnnc1NC(=O)c1ccnc(-c2ccncc2F)c1Cl [Compound 1-150] | 5 (Level 5: growth control rate is above 85%) | 5 (Level 5: growth control rate is above 85%) | 5 (Level 5: growth control rate is above 85%) | 5 (Level 5: growth control rate is above 85%)
Cn1nnnc1NC(=O)c1ccnc(-c2ccnc(Cl)c2)c1Cl [Compound 1-151] | 5 (Level 5: growth control rate is above 85%) | 5 (Level 5: growth control rate is above 85%) | 5 (Level 5: growth control rate is above 85%) | 5 (Level 5: growth control rate is above 85%)
Cn1nnnc1NC(=O)c1ccnc(-c2ccnc(Cl)c2Cl)c1Cl [Compound 1-152] | 5 (Level 5: growth control rate is above 85%) | 5 (Level 5: growth control rate is above 85%) | 5 (Level 5: growth control rate is above 85%) | 5 (Level 5: growth control rate is above 85%)
Cn1nnnc1NC(=O)c1ccnc(-c2cc(Cl)nc(Cl)c2)c1Cl [Compound 1-153] | 5 (Level 5: growth control rate is above 85%) | 5 (Level 5: growth control rate is above 85%) | 5 (Level 5: growth control rate is above 85%) | 5 (Level 5: growth control rate is above 85%)
Cn1nnnc1NC(=O)c1ccnc(-c2ccc(F)nn2)c1Cl [Compound 1-154] | 5 (Level 5: growth control rate is above 85%) | 5 (Level 5: growth control rate is above 85%) | 5 (Level 5: growth control rate is above 85%) | 5 (Level 5: growth control rate is above 85%)
Cn1nnnc1NC(=O)c1ccnc(-c2ccc(C#N)nn2)c1Cl [Compound 1-155] | 5 (Level 5: growth control rate is above 85%) | 5 (Level 5: growth control rate is above 85%) | 5 (Level 5: growth control rate is above 85%) | 5 (Level 5: growth control rate is above 85%)
Cn1nnnc1NC(=O)c1ccnc(-c2cncnc2)c1Cl [Compound 1-156] | 5 (Level 5: growth control rate is above 85%) | 5 (Level 5: growth control rate is above 85%) | 5 (Level 5: growth control rate is above 85%) | 5 (Level 5: growth control rate is above 85%)
Cn1nnnc1NC(=O)c1ccnc(-c2cnc(Cl)nc2)c1Cl [Compound 1-157] | 5 (Level 5: growth control rate is above 85%) | 5 (Level 5: growth control rate is above 85%) | 5 (Level 5: growth control rate is above 85%) | 5 (Level 5: growth control rate is above 85%)
Cn1nnnc1NC(=O)c1ccnc(-c2cnc(F)nc2)c1Cl [Compound 1-158] | 5 (Level 5: growth control rate is above 85%) | 5 (Level 5: growth control rate is above 85%) | 5 (Level 5: growth control rate is above 85%) | 5 (Level 5: growth control rate is above 85%)
Cn1nnnc1NC(=O)c1ccnc(-c2cnc(C#N)nc2)c1Cl [Compound 1-159] | 5 (Level 5: growth control rate is above 85%) | 5 (Level 5: growth control rate is above 85%) | 5 (Level 5: growth control rate is above 85%) | 5 (Level 5: growth control rate is above 85%)
Cn1nnnc1NC(=O)c1ccnc(-c2cnc(N)nc2)c1Cl [Compound 1-160] | 5 (Level 5: growth control rate is above 85%) | 5 (Level 5: growth control rate is above 85%) | 5 (Level 5: growth control rate is above 85%) | 5 (Level 5: growth control rate is above 85%)
